Assay results taken from patent US6352985B1, “Benzimidazole compounds” (Fujisawa Pharmaceutical Co., Ltd., priority 1995, dated 2002).

Columns and labels:
db/db mice = experiment: Test for activity of decreasing plasma glucose using db/db mice; format: in vivo; details: female db/db mice, difference between db/db and +/+ mouse defined as 100%
Experimental: Test for activity of decreasing plasma glucose using db/db mice
Five-week-old female mice [C57BL/KsJ-dbm db+/db+, C57BL/KsJ-dbm +m/+m (Jackson Laboratory) were purchased, and were kept for 2 to 3 weeks. Then, these mice were used in the test.
A test compound was mixed with a powdered chow (CE-2, made by Nippon Clea) using a mortar. According to the amount of food intake of the mouse, the mixing ratios, 0.1%, 0.03%, and 0.01% corresponded to 100, 30, and 10 mg/kg body weight, respectively. The mixed chow was changed twice a week. The feed amount and the remaining amount were recorded, and the intake was calculated from the difference therebetween.
The female db/db mice were grouped according to the body weight, the plasma glucose and the plasma triglyceride concentrations. Then, the mixture containing the test compound was administered to the mice for 14 days (from 8 to 10 weeks old). […] Plasma glucose, triglyceride, and insulin concentrations were measured on day 0 and day 14 as well as plasma glucose and triglyceride concentrations on day 7. The body weight was measured on day 0, day 7, and day 14. […]
The plasma glucose was measured by a glucose oxidase method (Glucose CII-Test Wako made by Wako Pure Chemical Industries, Ltd.) using from 10 to 15 μl of plasma. The plasma triglyceride concentration was measured by a GPO-p-chlorophenol method (Triglyceride G-Test Wako made by Wako Pure Chemical Industries, Ltd.) or a GPO-DAOS method (Triglyceride E-Test Wako) using from 10 to 15 μl of plasma. […] The plasma insulin concentration was measured by radio immuno assay method (Phadesef Insulin RIA Kit made by Cabi Pharmacia) using 20 μl of plasma (which can be stored at −20° C.).
The difference in the plasma glucose and the plasma triglyceride concentrations betweeen the db/db mouse and the +/+ mouse was defined as 100%, and the rate (%) of decrease in the plasma glucose and the plasma triglyceride concentrations of the group to which the test compound was administered was calculated.

[1] = test system: 3T3-L1 cells (pre-adipocytes); experiment: Stimulatory activity of triglyceride (TG) accumulation in 3T3-L1 cells (pre-adipocytes); format: cell-based; details: test compound 1 × 10^−5 M with insulin; 1×10^−6 M pioglitazone defined as 100%, insulin (+) without the chemical agent defined as 0%
Experimental: Stimulatory activity of triglyceride (TG) accumulation in 3T3-L1 cells (pre-adipocytes)
3T3-L1 cells just before a confluent state were prepared in an F75 flask. The medium was removed, and the residue was washed twice with 5 ml of PBS (−). The cells were detached using a solution of EDTA and trypsin. Ten milliliters of the medium were added thereto to form a suspension. This suspension was collected in a 50-milliliter centrifuge tube, and was subjected to centrifugation at 1,000 rpm for 5 minutes. Thus, the cells were precipitated, and the supernatant was removed. The cells were re-suspended in 20 ml of the medium, and the number of cells was counted. The suspension was adjusted such that the concentration of the cells reached 6×10^4 cells/ml, and was inoculated into a 24-well plate in an amount of 1 ml/well. In this state, the incubation was conducted in an incubator at 37° C. in 5% CO2 for 2 days.
A solution of 1-mM dexamethasone and 500-mM IBMX was prepared in DMSO. […]
Four to five days after the addition of the test chemical agent and the insulin solution, the 24-well plate was withdrawn from the incubator. […] Subsequently, the residue was extracted twice with isopropyl alcohol, and TG was measured at a wavelength of 410 nm using a TG-measuring kit (acetyl-acetone method). […]

[2] = dose 30 mg/kg mixed with powdered chow for 14 days

Compound	melting point	also measured
O=C(NS(=O)(=O)c1ccccc1)c1ccc2nc(C3CC3)n(Cc3ccccc3F)c2c1 [Compound (177), 6-benzenesulfonylcarbamoyl-2-cyclopropyl-1-(2-fluorobenzyl)benzimidazole]	–	Activity of decreasing plasma glucose (%) (db/db mice; [2]): 34.5%
Cc1nc2ccc(C(=O)NS(=O)(=O)c3cccc4cccnc34)cc2n1Cc1ccccc1Cl.[Na]	348 to 352 °C (dec.)	–
Cc1nc2ccc(C(=O)NS(=O)(=O)c3ccccc3)cc2n1Cc1ccccc1Cl [Compound (163), 6-benzenesulfonylcarbamoyl-1-(2-chlorobenzyl)-2-methylbenzimidazole]	273.5 to 274.3 °C	Activity of decreasing plasma glucose (%) (db/db mice; [2]): 72%
Cc1nc2ccc(CCC(=O)NS(=O)(=O)c3ccccc3)cc2n1Cc1ccccc1Cl [Compound (266), N-benzenesulfonyl-3-[1-(2-chlorobenzyl)-2-methylbenzimidazole-6-yl]propionamide]	229.8 to 233 °C	–
CCCCS(=O)(=O)NC(=O)c1ccc2nc(C)n(Cc3ccc(C(=O)c4ccccc4)cc3)c2c1 [Compound (373), 1-[(4-benzoyl)benzyl]-6-(1-butanesulfonylcarbamoyl)-2-methylbenzimidazole]	111 to 112.4 °C	–
Cc1nc2ccc(C(=O)NS(=O)(=O)c3ccc4ccccc4c3)cc2n1Cc1ccccc1Cl.[Na]	352 to 354.5 °C	–
Cc1nc2ccc(C(=O)NS(=O)(=O)c3ccc(C(C)(C)C)cc3)cc2n1Cc1ccccc1Cl.[Na]	359.5 to 362 °C	–
Cc1nc2ccc(C(=O)NS(=O)(=O)C(F)(F)F)cc2n1Cc1ccccc1Cl.Cl	332 to 335 °C (dec.)	–
Nc1nc2ccc(C(=O)NS(=O)(=O)c3ccccc3)cc2n1Cc1ccc(-c2ccccc2)cc1 [Compound (231), 2-amino-6-benzenesulfonylcarbamoyl-1-(biphenyl-4-ylmethyl)benzimidazole]	352.5 to 355 °C	–
Cc1nc2ccc(C(=O)NS(=O)(=O)c3ccc(C(F)(F)F)cc3)cc2n1Cc1ccccc1Cl [Compound (221), 1-(2-chlorobenzyl)-2-methyl-6-[4-(trifluoromethyl)benzenesulfonylcarbamoyl]benzimidazole]	288 to 292 °C	–
CNc1nc2ccc(C(=O)NS(=O)(=O)c3ccccc3)cc2n1Cc1ccc(-c2ccccc2)cc1 [Compound (230), 6-benzenesulfonylcarbamoyl-1-(biphenyl-4-ylmethyl)-2-methylaminobenzimidazole]	225 to 228 °C	–
Cc1nc2ccc(C(=O)NS(=O)(=O)c3ccccc3Cl)cc2n1Cc1ccccc1Cl.N [Compound (222), 6-(2-chlorobenzenesulfonylcarbamoyl)-1-(2-chlorobenzyl)-2-methylbenzimidazole ammonium salt]	264 to 267 °C	–
COc1ccc(S(=O)(=O)NC(=O)c2ccc3nc(C)n(Cc4ccccc4Cl)c3c2)cc1 [Compound (217), 1-(2-chlorobenzyl)-6-(4-methoxybenzenesulfonylcarbamoyl)-2-methylbenzimidazole]	271 to 274 °C	–
Cc1nc2ccc(C(=O)NS(=O)(=O)c3cccc(Cl)c3)cc2n1Cc1ccccc1Cl [Compound (209), 6-(3-chlorobenzenesulfonylcarbamoyl)-1-(2-chlorobenzyl)-2-methylbenzimidazole]	254.5 to 257.5 °C (dec.)	–
Cc1nc2ccc(C(=O)NS(=O)(=O)c3ccc([N+](=O)[O-])cc3)cc2n1Cc1ccccc1Cl [Compound (220), 1-(2-chlorobenzyl)-2-methyl-6-(4-nitrobenzenesulfonylcarbamoyl)benzimidazole]	330 to 332 °C	–
Cc1nc2ccc(C(=O)NS(=O)(=O)Cc3ccccc3)cc2n1Cc1ccccc1Cl [Compound (218), 1-(2-chlorobenzyl)-2-methyl-6-(α-toluenesulfonylcarbamoyl)benzimidazole]	193 to 196 °C	–
CCCCS(=O)(=O)NC(=O)c1ccc2nc(O)n(Cc3ccc(Cl)cc3Cl)c2c1 [Compound (379), 6-(1-butanesulfonylcarbamoyl)-1-(2,4-dichlorobenzyl)-2-hydroxybenzimidazole]	254 to 256 °C	–
Cc1ccc(C)c(S(=O)(=O)NC(=O)c2ccc3nc(C)n(Cc4ccccc4Cl)c3c2)c1 [Compound (219), 1-(2-chlorobenzyl)-6-(2,5-dimethylbenzenesulfonylcarbamoyl)-2-methylbenzimidazole]	266.5 to 267.5 °C	–
CC(C)c1nc2ccc(C(=O)NS(=O)(=O)c3ccccc3)cc2n1Cc1ccc(-c2ccccc2)cc1.[K]	310.1 to 312.7 °C	–
O=C(NS(=O)(=O)Cc1ccccc1)c1ccc2nc(C3CC3)n(Cc3ccccc3F)c2c1 [6-benzylsulfonylcarbamoyl-2-cyclopropyl-1-(2-fluorobenzyl)benzimidazole]	–	Stimulatory activity of TG accumulation (%) [1]: 38.2%
CCCCS(=O)(=O)NC(=O)c1ccc2nc(C)n(Cc3ccc(-c4ccccc4)cc3)c2c1 [Compound (172), 1-(biphenyl-4-ylmethyl)-6-(1-butanesulfonylcarbamoyl)-2-methylbenzimidazole]	–	Activity of decreasing plasma glucose (%) (db/db mice; dose 10 mg/kg mixed with powdered chow for 14 days): 70-80%
Cc1nc2ccc(C=CC(=O)NS(=O)(=O)c3ccccc3)cc2n1Cc1ccccc1Cl [Compound (178), N-benzenesulfonyl-3-[1-(2-chlorobenzyl)-2-methylbenzimidazol-6-yl]acrylamide]	243.1 to 244.3 °C	–
CCCc1nc2ccc(C(=O)NS(=O)(=O)c3ccccc3)cc2n1Cc1ccc(-c2ccccc2)cc1.[K]	279 to 282 °C	–
O=C(NS(=O)(=O)c1ccccc1)c1ccc2nc(C3CC3)n(Cc3ccc(-c4ccccc4)cc3)c2c1.[K]	220.8 to 224.8 °C	–
Cc1nc2ccc(C(=O)NS(=O)(=O)c3ccc(Cl)cc3)cc2n1Cc1ccccc1Cl.[Na]	360 to 362 °C (dec.)	–
